Reference: paper PMC5218480 (PLoS ONE, 2017)

Test system: MV-4-11 cells
Assay: Gene expression microarray analysis (Affymetrix PrimeView) and GSEA
Assay type: cell-based, human
Design: RFU PODN (11730768_x_at) / Fold change /veh PODN (11730768_x_at) / RFU LINC00158 (11744669_a_at) / Fold change /veh LINC00158 (11744669_a_at) / RFU DUSP10 (11751237_a_at) / Fold change /veh DUSP10 (11751237_a_at) / RFU ID3 (11757404_x_at) / Fold change /veh ID3 (11757404_x_at) / RFU PLEKHG5 (11737974_s_at) / Fold change /veh PLEKHG5 (11737974_s_at) / RFU LRRC4B (11730491_at) / Fold change /veh LRRC4B (11730491_at) / RFU GIMAP4 (11747438_a_at) / Fold change /veh GIMAP4 (11747438_a_at) / RFU KRT8 (11758183_x_at) / Fold change /veh KRT8 (11758183_x_at) / RFU CNN1 (11734310_a_at) / Fold change /veh CNN1 (11734310_a_at) / RFU VPS37D (11726825_at) / Fold change /veh VPS37D (11726825_at) / RFU C10orf10 (11716522_x_at) / Fold change /veh C10orf10 (11716522_x_at) / RFU KIR2DL2 /// KIR2DL4 /// KIR2DL5A /// KIR2DL5B /// KIR2DS1 /// KIR2DS2 /// KIR2DS3 /// KIR2DS4 /// KIR3DL3 /// KIR3DL3 /// KIR3DS1 (11738374_at) / Fold change /veh KIR2DL2 /// KIR2DL4 /// KIR2DL5A /// KIR2DL5B /// KIR2DS1 /// KIR2DS2 /// KIR2DS3 /// KIR2DS4 /// KIR3DL3 /// KIR3DL3 /// KIR3DS1 (11738374_at) / RFU C1QL1 (11718748_at) / Fold change /veh C1QL1 (11718748_at) / RFU TMPRSS4 (11747572_a_at) / Fold change /veh TMPRSS4 (11747572_a_at) / RFU HAMP (11756126_x_at) / Fold change /veh HAMP (11756126_x_at) / RFU RNFT2 (11725882_a_at) / Fold change /veh RNFT2 (11725882_a_at) / RFU NR4A2 (11747474_a_at) / Fold change /veh NR4A2 (11747474_a_at) / RFU ABCC12 (11746883_a_at) / Fold change /veh ABCC12 (11746883_a_at) / RFU TMEM136 (11760407_x_at) / Fold change /veh TMEM136 (11760407_x_at) / RFU CLDN22 /// WWC2 (11732394_at) / Fold change /veh CLDN22 /// WWC2 (11732394_at) / RFU HLA-DPB1 (11760878_x_at) / Fold change /veh HLA-DPB1 (11760878_x_at) / RFU SPINT1 (11716480_a_at) / Fold change /veh SPINT1 (11716480_a_at) / RFU GAP43 (11754022_s_at) / Fold change /veh GAP43 (11754022_s_at) / RFU A4GNT (11735810_at) / Fold change /veh A4GNT (11735810_at) / RFU PRB3 (11715151_x_at) / Fold change /veh PRB3 (11715151_x_at) / RFU TUBB4B (11761932_at) / Fold change /veh TUBB4B (11761932_at) / RFU CAPN14 (11732068_a_at) / Fold change /veh CAPN14 (11732068_a_at) / RFU TMCC2 (11721928_a_at) / Fold change /veh TMCC2 (11721928_a_at) / RFU IRGQ (11745062_a_at) / Fold change /veh IRGQ (11745062_a_at) / RFU FAM174B (11720279_a_at) / Fold change /veh FAM174B (11720279_a_at) / RFU TMPRSS4 (11748680_a_at) / Fold change /veh TMPRSS4 (11748680_a_at) / RFU FAM212B (11763350_a_at) / Fold change /veh FAM212B (11763350_a_at) / RFU PLEKHG5 (11743358_a_at) / Fold change /veh PLEKHG5 (11743358_a_at) / RFU ZSCAN30 (11745921_a_at) / Fold change /veh ZSCAN30 (11745921_a_at) / RFU CMKLR1 (11741424_a_at) / Fold change /veh CMKLR1 (11741424_a_at) / RFU LOC101060620 /// MAPK8IP1 (11723275_at) / Fold change /veh LOC101060620 /// MAPK8IP1 (11723275_at) / RFU SPTSSB (11747773_x_at) / Fold change /veh SPTSSB (11747773_x_at) / RFU PRSS12 (11739890_at) / Fold change /veh PRSS12 (11739890_at) / RFU BIN1 (11741810_x_at) / Fold change /veh BIN1 (11741810_x_at) / RFU WNT11 (11732464_a_at) / Fold change /veh WNT11 (11732464_a_at) / RFU C10orf10 (11716521_a_at) / Fold change /veh C10orf10 (11716521_a_at) / RFU C5orf56 (11738089_at) / Fold change /veh C5orf56 (11738089_at) / RFU CYB561 (11721691_x_at) / Fold change /veh CYB561 (11721691_x_at) / RFU ANKRD19P (11752326_a_at) / Fold change /veh ANKRD19P (11752326_a_at) / RFU OR2T12 /// OR2T33 /// OR2T8 (11738714_s_at) / Fold change /veh OR2T12 /// OR2T33 /// OR2T8 (11738714_s_at) / RFU VCAN (11748164_a_at) / Fold change /veh VCAN (11748164_a_at) / RFU JSRP1 (11732532_at) / Fold change /veh JSRP1 (11732532_at) / RFU KRTAP10-11 (11738290_x_at) / Fold change /veh KRTAP10-11 (11738290_x_at) / RFU MYO3A (11730013_a_at) / Fold change /veh MYO3A (11730013_a_at) / RFU EBF3 (11725865_a_at) / Fold change /veh EBF3 (11725865_a_at) / RFU CAMK2N1 (11719241_x_at) / Fold change /veh CAMK2N1 (11719241_x_at) / RFU C5orf56 (11738088_a_at) / Fold change /veh C5orf56 (11738088_a_at) / RFU OLFML3 (11715873_a_at) / Fold change /veh OLFML3 (11715873_a_at) / RFU LOC100653217 /// NTM (11731650_a_at) / Fold change /veh LOC100653217 /// NTM (11731650_a_at) / RFU MAPK11 (11762145_a_at) / Fold change /veh MAPK11 (11762145_a_at) / RFU FIZ1 (11724087_x_at) / Fold change /veh FIZ1 (11724087_x_at) / RFU OASL (11726364_x_at) / Fold change /veh OASL (11726364_x_at) / RFU SOX15 (11748057_x_at) / Fold change /veh SOX15 (11748057_x_at) / RFU CD79A (11719716_a_at) / Fold change /veh CD79A (11719716_a_at) / RFU HIST1H1D (11736915_at) / Fold change /veh HIST1H1D (11736915_at) / RFU CASKIN2 (11723855_a_at) / Fold change /veh CASKIN2 (11723855_a_at) / RFU LOC730098 (11760151_x_at) / Fold change /veh LOC730098 (11760151_x_at) / RFU OR4N2 (11742367_at) / Fold change /veh OR4N2 (11742367_at) / RFU PRRT2 (11749266_a_at) / Fold change /veh PRRT2 (11749266_a_at) / RFU SNX32 (11753110_a_at) / Fold change /veh SNX32 (11753110_a_at) / RFU CDHR5 (11726645_a_at) / Fold change /veh CDHR5 (11726645_a_at) / RFU RCAN1 (11760418_a_at) / Fold change /veh RCAN1 (11760418_a_at) / RFU FAM167A (11723789_a_at) / Fold change /veh FAM167A (11723789_a_at) / RFU FAM26E (11764081_at) / Fold change /veh FAM26E (11764081_at) / RFU ISYNA1 (11749810_s_at) / Fold change /veh ISYNA1 (11749810_s_at) / RFU ACY1 (11761880_at) / Fold change /veh ACY1 (11761880_at) / RFU 11764098_at / Fold change /veh 11764098_at / RFU SAMD14 (11745864_x_at) / Fold change /veh SAMD14 (11745864_x_at) / RFU NPB (11741838_a_at) / Fold change /veh NPB (11741838_a_at) / RFU TMPRSS6 (11731388_a_at) / Fold change /veh TMPRSS6 (11731388_a_at) / RFU KRTAP10-2 (11738614_at) / Fold change /veh KRTAP10-2 (11738614_at) / RFU ARHGAP8 /// PRR5-ARHGAP8 (11727945_x_at) / Fold change /veh ARHGAP8 /// PRR5-ARHGAP8 (11727945_x_at) / RFU KRTAP5-7 /// NADSYN1 (11734609_at) / Fold change /veh KRTAP5-7 /// NADSYN1 (11734609_at) / RFU RASL12 (11751679_a_at) / Fold change /veh RASL12 (11751679_a_at) / RFU CDKN2B (11736163_a_at) / Fold change /veh CDKN2B (11736163_a_at) / RFU PRF1 (11729649_at) / Fold change /veh PRF1 (11729649_at) / RFU, ZNF638 /// ZNF638-IT1 / Fold change vs veh, ZNF638 /// ZNF638-IT1 / RFU, PANK3 / Fold change vs veh, PANK3 / RFU, SH3YL1 / Fold change vs veh, SH3YL1 / RFU, ZEB2 / Fold change vs veh, ZEB2 / RFU, NRIP1 / Fold change vs veh, NRIP1 / RFU, PTTG1IP / Fold change vs veh, PTTG1IP / RFU, CAPN2 / Fold change vs veh, CAPN2 / RFU, MED14 / Fold change vs veh, MED14 / RFU, SNORA58 / Fold change vs veh, SNORA58 / RFU, C1orf63 / Fold change vs veh, C1orf63 / RFU, LRRFIP1 / Fold change vs veh, LRRFIP1 / RFU, NDUFAF7 / Fold change vs veh, NDUFAF7 / RFU, SLC12A2 / Fold change vs veh, SLC12A2 / RFU, IBTK / Fold change vs veh, IBTK / RFU, ESF1 / Fold change vs veh, ESF1 / Fold change vs veh, TMEM50B / RFU, TAOK1 / Fold change vs veh, TAOK1 / RFU, ACBD3 / Fold change vs veh, ACBD3 / RFU, TMA16 / Fold change vs veh, TMA16 / RFU, RWDD3 / Fold change vs veh, RWDD3 / RFU, BCAT1 / Fold change vs veh, BCAT1 / RFU, EDEM3 / Fold change vs veh, EDEM3 / RFU, TMEM33 / Fold change vs veh, TMEM33 / RFU, WDR75 / Fold change vs veh, WDR75 / RFU, AHCTF1 / Fold change vs veh, AHCTF1 / RFU, TFRC / Fold change vs veh, TFRC / RFU, ZDHHC17 / Fold change vs veh, ZDHHC17 / RFU, NOM1 / Fold change vs veh, NOM1 / RFU, ARL8B / Fold change vs veh, ARL8B / RFU, ZBTB11 / Fold change vs veh, ZBTB11 / RFU, TAMM41 / Fold change vs veh, TAMM41 / RFU, KIAA1704 /// LOC100996395 / Fold change vs veh, KIAA1704 /// LOC100996395 / RFU, ING1 / Fold change vs veh, ING1 / RFU, TRMT61B / Fold change vs veh, TRMT61B / RFU, FUBP3 / Fold change vs veh, FUBP3 / RFU, TP53 / Fold change vs veh, TP53 / RFU, TNKS2 / Fold change vs veh, TNKS2 / RFU, ZFP14 / Fold change vs veh, ZFP14 / RFU, ACTR2 / Fold change vs veh, ACTR2 / RFU, PPP3R1 / Fold change vs veh, PPP3R1 / RFU, PIK3R1 / Fold change vs veh, PIK3R1 / RFU, HNRNPA1 / Fold change vs veh, HNRNPA1 / RFU, RNF170 / Fold change vs veh, RNF170 / RFU, ZNF28 / Fold change vs veh, ZNF28 / RFU, RNGTT / Fold change vs veh, RNGTT / RFU, OGT / Fold change vs veh, OGT / RFU, BRD1 / Fold change vs veh, BRD1 / RFU, MARS / Fold change vs veh, MARS / RFU, ZNF655 / Fold change vs veh, ZNF655 / RFU, FAHD1 / Fold change vs veh, FAHD1 / RFU, BDP1 / Fold change vs veh, BDP1 / RFU, LRRCC1 / Fold change vs veh, LRRCC1 / RFU, ARID1A / Fold change vs veh, ARID1A / RFU, ZNF146 / Fold change vs veh, ZNF146 / RFU, ZNF330 / Fold change vs veh, ZNF330 / RFU, GPN3 / Fold change vs veh, GPN3 / RFU, C9orf123 / Fold change vs veh, C9orf123 / RFU, N4BP2L2 / Fold change vs veh, N4BP2L2 / RFU, ARFIP1 / Fold change vs veh, ARFIP1 / RFU, FAM179B / Fold change vs veh, FAM179B / RFU, BCL10 / Fold change vs veh, BCL10 / RFU, UHRF1BP1L / Fold change vs veh, UHRF1BP1L / RFU, BET1 / Fold change vs veh, BET1 / RFU, CNOT2 / Fold change vs veh, CNOT2 / RFU, ZNF268 / Fold change vs veh, ZNF268 / Fold change vs veh, ZNF507 / RFU, DGCR2 / Fold change vs veh, DGCR2 / RFU, WDSUB1 / Fold change vs veh, WDSUB1 / Fold change vs veh, HSP90B1 /// MIR3652 / RFU, ADSS / Fold change vs veh, ADSS / RFU, GK / Fold change vs veh, GK / RFU, ZNF148 / Fold change vs veh, ZNF148 / RFU, TAF9 / Fold change vs veh, TAF9 / RFU, SLC1A5 / Fold change vs veh, SLC1A5 / RFU, SLMO2 / Fold change vs veh, SLMO2 / RFU, ABCC4 / Fold change vs veh, ABCC4 / RFU, LOC101060439 /// RAP1B / Fold change vs veh, LOC101060439 /// RAP1B / RFU, RFX7 / Fold change vs veh, RFX7 / RFU, GTPBP10 / Fold change vs veh, GTPBP10 / RFU, CNEP1R1 / Fold change vs veh, CNEP1R1 / RFU, BIVM-ERCC5 /// ERCC5 / Fold change vs veh, BIVM-ERCC5 /// ERCC5 / RFU, ILF3 / Fold change vs veh, ILF3 / RFU 11762660_at / Fold change /veh 11762660_at / RFU VCAN (11757783_s_at) / Fold change /veh VCAN (11757783_s_at) / RFU DDX43 (11728927_at) / Fold change /veh DDX43 (11728927_at) / RFU KRT8 (11758188_x_at) / Fold change /veh KRT8 (11758188_x_at) / RFU NKD1 (11759106_at) / Fold change /veh NKD1 (11759106_at) / RFU SRD5A1 (11742802_a_at) / Fold change /veh SRD5A1 (11742802_a_at) / RFU TPSAB1 /// TPSB2 (11721975_s_at) / Fold change /veh TPSAB1 /// TPSB2 (11721975_s_at) / RFU GSTM3 (11746129_a_at) / Fold change /veh GSTM3 (11746129_a_at) / RFU IL23R (11737362_x_at) / Fold change /veh IL23R (11737362_x_at) / RFU TMEM51 (11727254_a_at) / Fold change /veh TMEM51 (11727254_a_at) / RFU PIWIL2 (11732686_x_at) / Fold change /veh PIWIL2 (11732686_x_at) / RFU ORM1 (11744905_x_at) / Fold change /veh ORM1 (11744905_x_at) / RFU CCDC152 (11743942_at) / Fold change /veh CCDC152 (11743942_at) / RFU ECM1 (11717891_a_at) / Fold change /veh ECM1 (11717891_a_at) / RFU IL23R (11748794_a_at) / Fold change /veh IL23R (11748794_a_at) / RFU TNFAIP8L3 (11732012_x_at) / Fold change /veh TNFAIP8L3 (11732012_x_at) / RFU MBOAT4 (11741988_at) / Fold change /veh MBOAT4 (11741988_at) / RFU 11764193_at / Fold change /veh 11764193_at / RFU TMEM53 (11763286_at) / Fold change /veh TMEM53 (11763286_at) / RFU MAGEB2 (11727129_at) / Fold change /veh MAGEB2 (11727129_at) / RFU TMEM200A (11744735_a_at) / Fold change /veh TMEM200A (11744735_a_at) / RFU CCDC152 (11751479_a_at) / Fold change /veh CCDC152 (11751479_a_at) / RFU FAM211A (11726209_a_at) / Fold change /veh FAM211A (11726209_a_at) / RFU RGS16 (11746705_a_at) / Fold change /veh RGS16 (11746705_a_at) / RFU VCAN (11755009_s_at) / Fold change /veh VCAN (11755009_s_at) / RFU RHOB (11743442_s_at) / Fold change /veh RHOB (11743442_s_at) / RFU RGS16 (11720943_a_at) / Fold change /veh RGS16 (11720943_a_at) / RFU RGS16 (11720944_at) / Fold change /veh RGS16 (11720944_at) / RFU, VPS4B / Fold change vs veh, VPS4B / RFU, CREB1 / Fold change vs veh, CREB1 / RFU, DNAJC13 / Fold change vs veh, DNAJC13 / RFU, GNAQ / Fold change vs veh, GNAQ / RFU, CDK5R1 / Fold change vs veh, CDK5R1 / RFU, ZRANB3 / Fold change vs veh, ZRANB3 / RFU, CUL4A / Fold change vs veh, CUL4A / RFU, CCNY / Fold change vs veh, CCNY / RFU, UFL1 / Fold change vs veh, UFL1 / RFU, COG3 / Fold change vs veh, COG3 / RFU, DIAPH2 / Fold change vs veh, DIAPH2 / RFU, SKA2 / Fold change vs veh, SKA2 / RFU, AFF3 / Fold change vs veh, AFF3 / RFU, LMF1 / Fold change vs veh, LMF1 / RFU, IPO11 / Fold change vs veh, IPO11 / RFU, DFFB / Fold change vs veh, DFFB / RFU, FOXP1 / Fold change vs veh, FOXP1 / RFU, CARD8 / Fold change vs veh, CARD8 / RFU, STRN3 / Fold change vs veh, STRN3 / RFU, ADK / Fold change vs veh, ADK / RFU, RASSF2 / Fold change vs veh, RASSF2 / RFU, WIPF1 / Fold change vs veh, WIPF1 / RFU, LARP1B / Fold change vs veh, LARP1B / RFU, RASA1 / Fold change vs veh, RASA1 / RFU, RB1 / Fold change vs veh, RB1 / RFU, PPFIA1 / Fold change vs veh, PPFIA1 / RFU, MAT2A / Fold change vs veh, MAT2A / RFU, CCT5 / Fold change vs veh, CCT5 / RFU, WDR92 / Fold change vs veh, WDR92 / RFU, CUX1 / Fold change vs veh, CUX1 / RFU, TTC7A / Fold change vs veh, TTC7A / RFU, TMEM135 / Fold change vs veh, TMEM135 / RFU, DEPTOR / Fold change vs veh, DEPTOR / RFU, CPM / Fold change vs veh, CPM / RFU, DNAJB6 / Fold change vs veh, DNAJB6 / RFU, CACNA2D3 / Fold change vs veh, CACNA2D3 / RFU, DTX4 / Fold change vs veh, DTX4 / RFU, TFCP2 / Fold change vs veh, TFCP2 / RFU, GMCL1 /// GMCL1P1 / Fold change vs veh, GMCL1 /// GMCL1P1 / RFU, AEBP2 / Fold change vs veh, AEBP2 / RFU, SNHG1 /// SNORD22 /// SNORD25 /// SNORD26 /// SNORD27 /// SNORD28 /// SNORD29 /// SNORD31 / Fold change vs veh, SNHG1 /// SNORD22 /// SNORD25 /// SNORD26 /// SNORD27 /// SNORD28 /// SNORD29 /// SNORD31 / Fold change (Aza/veh), C12orf56 (ProbeSet 11735607_a_at) / Fold change (ACY-1035/veh), C12orf56 (ProbeSet 11735607_a_at) / Fold change (Aza/veh), FGFR1OP (ProbeSet 11751329_s_at) / Fold change (ACY-1035/veh), FGFR1OP (ProbeSet 11751329_s_at) / Fold change (Aza/veh), VPS36 (ProbeSet 11739960_a_at) / Fold change (ACY-1035/veh), VPS36 (ProbeSet 11739960_a_at) / RFU SYPL1 (11715823_x_at) / Fold change /veh SYPL1 (11715823_x_at) / RFU IGFBP7 (11715501_s_at) / Fold change /veh IGFBP7 (11715501_s_at) / RFU REEP3 (11722064_at) / Fold change /veh REEP3 (11722064_at) / RFU IGLL1 (11728026_x_at) / Fold change /veh IGLL1 (11728026_x_at): dose or concentration left out as unconfirmed
Details: ProbeSet 11739263_x_at; LIST D

## Nc1ccc(-c2cccs2)cc1NC(=O)c1ccc2c(c1)cc(C1CC1)n2CCN1CCOCC1 [ACY-1035]
  Fold change vs veh, VPS4B: 0.95
